Columns and labels:
[1] = molecular target: T1, Heat shock protein HSP 90-beta (Homo sapiens, UniProt P08238); assay: Cell Proliferation Assay; conditions: 37 °C
Text: Cell assay using BT474, SKBR3 and MCF-12F cell lines measured by WST-1 colorimetric cell proliferation assay.

[2] = molecular target: T1, Heat shock protein HSP 90-beta; assay: AlphaScreen Assay
Text: AlphaScreen technology based high-throughput (ALPHA) assay is used to identify inhibitors of Hsp90-TPR2A interaction.

T1 sequence (P08238 whole entry): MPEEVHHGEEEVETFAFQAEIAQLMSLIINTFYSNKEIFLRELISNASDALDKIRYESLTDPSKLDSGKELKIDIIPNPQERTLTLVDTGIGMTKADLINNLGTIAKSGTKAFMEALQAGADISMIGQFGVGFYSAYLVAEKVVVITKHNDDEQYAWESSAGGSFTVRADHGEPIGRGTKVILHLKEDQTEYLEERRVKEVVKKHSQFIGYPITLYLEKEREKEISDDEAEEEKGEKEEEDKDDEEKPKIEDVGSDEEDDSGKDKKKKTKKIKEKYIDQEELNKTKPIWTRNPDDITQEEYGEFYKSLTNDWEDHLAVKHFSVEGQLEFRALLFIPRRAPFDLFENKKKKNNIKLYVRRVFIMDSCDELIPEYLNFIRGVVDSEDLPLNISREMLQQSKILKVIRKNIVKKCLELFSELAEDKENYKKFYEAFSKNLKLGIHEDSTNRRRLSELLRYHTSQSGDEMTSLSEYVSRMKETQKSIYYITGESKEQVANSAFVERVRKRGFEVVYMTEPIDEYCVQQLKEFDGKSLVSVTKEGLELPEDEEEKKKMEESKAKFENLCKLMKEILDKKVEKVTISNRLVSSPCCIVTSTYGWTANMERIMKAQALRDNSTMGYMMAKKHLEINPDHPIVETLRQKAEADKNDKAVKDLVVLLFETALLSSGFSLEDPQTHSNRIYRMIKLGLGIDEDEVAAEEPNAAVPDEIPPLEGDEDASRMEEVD

SMILES	EC50 [1]	Kd [2]
Cn1nc(-c2ccccc2)nc2c(=O)n(C)c(=O)nc1-2 [1,6-dimethyl-3-phenyl-1H,5H,6H,7H-pyrimido[5,4-e][1,2,4]triazine-5,7-dione, 10]	690 nM	585 nM
CCn1nc(-c2ccccc2)nc2c(=O)n(C)c(=O)nc1-2 [1-Ethyl-6-methyl-3-phenyl-1H-pyrimido[5,4-e][1,2,4]triazine-5,7-dione]	1720 nM	360 nM
CCn1nc(Cc2ccccc2)nc2c(=O)n(C)c(=O)nc1-2 [3-benzyl-1-ethyl-6-methyl-1H,5H,6H,7H-pyrimido[5,4-e][1,2,4]triazine-5,7-dione, 13]	4270 nM	182 nM
CCn1nc(-c2cccs2)nc2c(=O)n(C)c(=O)nc1-2 [1-ethyl-6-methyl-3-thiophen-2-yl-pyrimido[5,4-e][1,2,4]triazine-5,7-dione]	1210 nM	365 nM
CCCc1nc2c(=O)n(C)c(=O)nc-2n(C)n1 [1,6-dimethyl-3-propyl-pyrimido[5,4-e][1,2,4]triazine-5,7-dione]	917 nM	414 nM
Cc1nc2c(=O)n(C)c(=O)nc-2n(C)n1 [1,3,6-Trimethyl-1H-pyrimido[5,4-e][1,2,4]triazine-5,7-dione]	946 nM	492 nM
